According to patent publication US20060084697A1, “Pi3k antagonists as radiosensitizers” (priority 2002, published 2006):

What was measured:
Akt [1] = experiment: Western immunoblot of radiation-induced Akt phosphorylation in endothelial cells; type: cell-based; details: for radiation-induced activation of Akt: irradiated vascular endothelium, summary statement
Protocol: Broad spectrum RTK inhibitors were tested for their abilities to attenuate radiation-induced phosphorylation of Akt. SU6668, a tyrosine kinase inhibitor of VEGFR, PDGFR, FGFR, and c-Kit, was added to endothelial cells prior to irradiation. Western immunoblots using phospho-specific antibodies to phosphorylated Akt (P-Akt) were prepared.
(§1) The role of RTKs in radiation-induced activation of the Akt signaling pathway was examined by studying a panel of tyrosine kinase inhibitors including PDGF receptor antagonists in primary culture endothelial cells. PDGF receptor antagonists including SU6668, SU11248, and STI571, attenuated radiation-induced phosphorylation of both Akt and Erk. […] Similar efficacy in blocking Erk1/2 phosphorylation in irradiated endothelial cells was found.

Erk1/2 = experiment: Radiation-induced Erk phosphorylation in endothelial cells; type: cell-based; details: for radiation-induced phosphorylation of Erk: primary culture endothelial cells (Example 16)
Protocol: Phosphorylation of MEK and Erk proteins was also investigated. Erk1/2 was activated following a single 3 Gy dose of irradiation. Erk was phosphorylated within 15 minutes, which resolved within 60 minutes. SU6668 is a broad spectrum inhibitor of split kinase domain RTKs, including Flk-1, Flt-1, PDGFR, fibroblast growth factor receptor (FGFR), and c-Kit (Mendel et al, 2003).
as §1

Akt [2] = experiment: Western blot of radiation-induced Akt phosphorylation in HUVEC; type: cell-based, human
From the text: HUVEC cells were obtained from Clonetics and were maintained in EBM-2 medium supplemented with EGM™-2MV SINGLEQUOTS® (Bio-Whittaker, Inc., Walkersville, Md., United States of America). An Eldorado-8 Cobalt-60 teletherapy unit (Atomic Energy of Canada Limited, Mississauga, Ontario, Canada) was used to irradiate endothelial cell cultures at a dose rate of 0.84 Gy per minute. Delivered doses ranging from 0 to 12 Gy were verified by use of thermoluminescence detectors.
In order to determine if Akt is phosphorylated in response to irradiation, cultured HUVEC cells were serum starved for 4 hours, exposed to irradiation, and the phosphorylation of Akt was examined in cell extracts by Western blotting. Total cellular protein was extracted after radiation treatment as follows. Cells were counted and then washed with iced-cold PBS twice before the addition of lysis buffer (M-PER™ mammalian protein extraction reagent; Pierce Chemical Company, Rockford, Ill., United States of America; or 20 mM Tris, 150 mM NaCl, 1 mM EDTA, 1% Triton X-100, 2.5 mM sodium pyrophosphate, 1 mM phenylmethylsulphonyl fluoride (PMSF), and […] Leupeptin (Roche Molecular Biochemicals, Indianapolis, Ind., United States of America)). Protein concentrations were quantified using the Biorad method (Bradford, 1976). 50 μg protein was loaded into each well of an 8% sodium dodecyl […]-polyacrylamide gel electrophoresis (SDS-PAGE) gel and separated by electrophoresis. The proteins were subsequently transferred onto 0.45 μm nitrocellulose membranes. Membranes were blocked by incubation for 2 hours at room temperature in phosphate buffered saline-Triton (PBST: 0.9% NaCl, 0.3% Triton X-100, pH 7.4) containing 10% nonfat dry milk.
The presence of Akt protein on the membrane was determined as follows. The membranes were incubated with a 1:1000 dilution of rabbit antibody directed against either phosphorylated (Ser473) or non-phosphorylated human Akt overnight at 4° C. Rabbit antibodies were obtained from Cell Signaling Technology, Beverly, Mass., United States of America. The blots were then washed with PBST to remove unbound rabbit antibodies. The washed blots were then incubated for 1 hour at room temperature with a donkey anti-rabbit IgG secondary antibody (Amersham Biosciences, Piscataway, N.J., United States of America) diluted 1:1000 in PBST. The blots were again washed with PBST to remove unbound donkey antibodies. The presences of both phosphorylated and non-phosphorylated human Akt were determined by chemiluminescent detection of donkey anti-rabbit/rabbit anti-human Akt complexes using the ECL™ detection system (Amersham Biosciences) according to the manufacturer's protocol, followed by autoradiography. […]

HUVEC cells [3] = experiment: Apoptotic nuclei in HUVEC, H&E staining; type: cell-based, human; details: wortmannin 4 nM or LY294002 2 μM, 24 hours
Protocol: To determine whether PI3K antagonists enhance the activities of intrinsic cell death mechanisms induced by irradiation, apoptosis in HUVEC cells was studied following PI3K inhibition. HUVEC cells were treated with wortmannin (4 nM) or with LY294002 (2 μM) as described in Example 2. Cells were treated 30 minutes later with 3 Gy of ionizing radiation. Cultures were stained 24 hours later with hematoxylin and eosin (H&E) to reveal apoptotic nuclei. Stained cells were then examined by light microscopy. For each treatment group, four high power fields (40× objective) were examined, and both the number of cells with apoptotic nuclei and the total number of cells were determined. From these numbers, the percentage of apoptotic cells for each group was calculated.

HUVEC cells [4] = experiment: Clonogenic survival analysis of HUVEC; type: cell-based, human; details: HUVEC treated with SU11248 prior to irradiation; p<0.05
Protocol: The ability of PI3K antagonist to suppress the clonogenic potential of HUVEC cells treated with radiation was assayed by clonogenic survival analysis. The ability of HUVEC cells treated with LY294002 30 minutes prior to irradiation to form colonies was compared to that of HUVEC cells treated with either radiation or LY294002 alone, and also to that of untreated HUVEC cells. […] Briefly, groups of three HUVEC culture plates were treated at each of four radiation dose levels: 2, 4, 6, and 8 Gy, either with or without prior treatment with PI3K antagonists as described in Example 2. After treatment with radiation and/or antagonists, cells were trypsinized, counted by hemocytometer, and subcultured into fresh medium. After 14 days, the cells were fixed with cold methanol and stained with 1% methylene blue. Colonies with greater than 50 cells were counted and the surviving fraction was determined.

tumors [5] = experiment: Power Doppler tumor blood flow, SU11248 and radiation; type: in vivo; details: p<0.053
From the text: To determine whether prolonged growth delay correlated with reduction in tumor blood flow, amplitude modulated Power Doppler was used to monitor blood flow. Reduced blood flow in tumors treated with SU11248 and radiation correlated with improved tumor growth delay.

HUVECs = experiment: Apoptotic nuclei in HUVEC, SU11248 and 6 Gy; type: cell-based, human; details: 24 hours
Protocol: To determine whether broad spectrum RTK inhibition enhances the cytotoxic effects of radiation on vascular endothelium, SU11248 was added 30 minutes prior to irradiation. HUVECs were treated with vehicle control, and either 100 nM SU11248 orvehicle combined with 6 Gy. […] Untreated control cells show 2% apoptotic nuclei as compared to 7 and 8% after treatment with SU11248 or radiation, respectively (p>0.1). […] To determine whether enhanced apoptotic response in endothelial cells treated with SU11248 results in reduced clonogenic cell survival, HUVEC were subcultured and colony formation was quantified.

tumor vasculature = experiment: Intravital tumor vascular window, vascular length density, SU11248; type: in vivo, mice
Protocol: Growth factors produced by tumors could enhance the viability of tumor vascular endothelium. To determine whether SU11248 enhances radiation-induced destruction of tumor vasculature, SU11248 was administered to mice prior to irradiation with 3 Gy. Tumor vascular linear density was measured by use of intravital tumor vascular window. […] Five mice were treated in each of the treatment groups, and the vascular length density after treatment was quantified. Mean vascular length densities over four days are shown as a bar graph.

LLC hind limb tumors = experiment: Tumor growth delay, LLC hind limb tumors; type: in vivo, mice
Protocol: (§2) Destruction of tumor vasculature results in ischemia, which could reduce radiosensitivity of tumors. To determine whether SU11248 enhances tumor growth delay in irradiated tumors, mice bearing LLC and GL261 hind limb tumors were treated with intraperitoneal injection of 40 mg/kg SU11248 or control vehicle 30 minutes prior to each 3 Gy dose of radiation for a total of seven administrations. Both the inhibitor and radiation were discontinued after day 8. Time to doubling of LLC tumor size was 5, 6, 8 and 16 days for vehicle, SU11248, vehicle+21 Gy, and SU11248+21 Gy, respectively.

GL261 hind limb tumors = experiment: Tumor growth delay, GL261 hind limb tumors, SU11248; type: in vivo, mice; details: SU11248 prior to daily 3 Gy fractions, p<0.05
Protocol: as §2

tumors [6] = experiment: Maintenance SU11248 after radiation, tumor growth delay; type: in vivo
Protocol: Upon the discontinuation of therapy, tumors rapidly regrow. To determine whether maintenance of SU11248 beyond the completion of radiation improved growth delay, this RTK inhibitor was administered twice daily continuously in groups treated with radiation alone or SU11248 and radiation. Beginning after day 8, three groups (drug alone, radiation+vehicle, and combined therapy) were maintained with twice daily intraperitoneal administrations of 20 mg/kg SU11248 for an additional 7 days. Maintenance treatment was discontinued after day 17, and subsequently resumed after four days of drug holiday.

PDGFRβ = experiment: Phospho-PDGFRβ immunohistochemistry of GL261 tumors; type: in vivo, C57BL6 mice; details: administered one hour prior to 3 Gy
From the text: To determine to the level of phosphorylation of PDGF receptor, GL261 mouse tumor models were sectioned and stained. A phospho-specific antibody to PDGFRβ Tyr751 (Cell Signaling Technology, Beverly, Mass., United States of America) was used. Tumors produced by injecting GL261 murine glioma cells into the hind limb of C57BL6 mice were stained for phospho-PDGFRβ and visualized using immunohistochemistry. Phospho-PDGFRβ staining was graded as 2+ relative to staining in negative controls.
To determine whether cytotoxic therapy alters PDGFRβ phosphorylation, the tumor was irradiated (3 Gy) and snap frozen following irradiation. […] Positive staining for phosphorylated PDGFR was found in endothelium and tumor stroma.
Western immunoblots were performed to verify radiation induced an increase in phosphorylation of PDGFRβ. Protein extracted from irradiated HUVEC had increased phosphorylation of PDGFRβ.

tumor endothelium = experiment: TUNEL and vWF co-staining of tumor sections; type: in vivo
From the text: To determine whether SU11248 interacts with radiation through the induction of apoptosis in tumor endothelium, TUNEL staining of tumor sections was utilized. Tumor sections were co-stained for the endothelial marker von Willebrand factor (vWF) and TUNEL.

[7] = primary culture endothelial cells (Example 16)
[8] = added to endothelial cells prior to irradiation (Example 15)

## Cc1ccc(NC(=O)c2ccc(CN3CCN(C)CC3)cc2)cc1Nc1nccc(-c2cccnc2)n1 [STI571]
Akt [1]; [7]
  radiation-induced phosphorylation of Akt: attenuated
Erk1/2
  radiation-induced phosphorylation of Erk: attenuated

## COC[C@H]1OC(=O)c2coc3c2[C@@]1(C)C1=C(C3=O)[C@@H]2CCC(=O)[C@@]2(C)C[C@H]1OC(C)=O [wortmannin, Wortmannin]
Akt [2]; HUVEC, wortmannin 4 nM or LY294002 2 μM
  total Akt levels: no effect
HUVEC cells [3]; HUVEC pretreated 30 minutes before 3 Gy
  apoptotic nuclei, % of cells: 17%
HUVEC cells [3]; unirradiated HUVEC
  apoptotic cells: 3%

## CCN(CC)CCNC(=O)c1c(C)[nH]c(/C=C2\C(=O)Nc3ccc(F)cc32)c1C [SU11248]
Akt [1]
  radiation-induced activation of Akt: attenuate
Akt [1]; [7]
  radiation-induced phosphorylation of Akt: attenuated
Erk1/2
  radiation-induced phosphorylation of Erk: attenuated
HUVEC cells [4]
  clonogenic survival compared to radiation alone: significant reduction
Tumors [5]
  tumor blood flow compared to radiation alone: approached significant reduction
HUVECs; 100 nM SU11248 30 minutes prior to 6 Gy
  endothelial cells with apoptotic nuclei: 21%
HUVECs; 100 nM SU11248 alone, untreated 2%
  endothelial cells with apoptotic nuclei: 7%
Tumor vasculature; SU11248 alone
  vascular length density, % of that at 0 hour: 84%
Tumor vasculature; SU11248 followed by 3 Gy, within 72 hours, p<0.01
  vascular length density, % of that at 0 hours: 8%
LLC hind limb tumors; 40 mg/kg i.p. 30 minutes prior to each 3 Gy dose, 21 Gy total, vehicle+21 Gy 8 days
  time to doubling of LLC tumor size: 16 days
LLC hind limb tumors; 40 mg/kg i.p., seven administrations, no radiation, vehicle 5 days
  time to doubling of LLC tumor size: 6 days
LLC hind limb tumors; LLC, SU11248 prior to daily 3 Gy fractions, p<0.05
  tumor growth delay compared to either agent alone: significant increase
GL261 hind limb tumors
  tumor growth delay compared to either agent alone: significant increase
Tumors [6]; maintenance 20 mg/kg i.p. twice daily for 7 days after day 8, p<0.05 in all groups
  growth to 4-fold that of day 0 tumors: significantly delays
Tumors [6]; re-initiation at day 21 after four days of drug holiday
  tumor growth after re-initiation of SU11248: second phase of tumor growth delay
PDGFRβ
  radiation-induced PDGFR phosphorylation: markedly attenuated
Tumor endothelium; SU11248 alone
  apoptotic cells in tumor sections: could not be detected
Tumor endothelium; radiation and SU11248, 24 hours following treatment, no apoptotic tumor cells
  apoptotic cells in tumor sections: TUNEL positive endothelial cells

## Cc1cc(C)c(/C=C2\C(=O)Nc3ccccc32)[nH]1 [SU5416]
Akt [1]; [8]
  radiation-induced phosphorylation of Akt: did not attenuate

## Cc1[nH]c(C=C2C(=O)Nc3ccccc32)c(C)c1CCC(=O)O [SU6668, 3-[2,4-dimethyl-5-(2-oxo-1,2-dihydro-indol-3-ylidenemethyl)-1H-pyrrol-3-yl]-propionic acid]
Akt [1]; [8]
  radiation-induced phosphorylation of Akt: blocked
Akt [1]
  radiation-induced activation of Akt: attenuate
Akt [1]; [7]
  radiation-induced phosphorylation of Akt: attenuated
Erk1/2; added 30 minutes prior to irradiation, 3 Gy, did not entirely eliminate activation
  Erk 1/2 phosphorylation: attenuated
Erk1/2
  radiation-induced phosphorylation of Erk: attenuated

## O=c1c(-c2ccc(O)cc2)coc2cc(O)cc(O)c12 [Genistein, 4′,5,7-trihydroxyisoflavone]
Akt [1]
  radiation-induced activation of Akt: attenuates

## CCCCCCCCCCCCCC(=O)N[C@H](C)[C@@H](O)c1ccccc1 [MAPP]
Akt [2]; antagonists added to HUVEC in culture (Example 18)
  Akt phosphorylation in response to 3 Gy irradiation: did not attenuate
